From PubChem BioAssay AID602321 (The Scripps Research Institute Molecular Screening Center, 2012)
Calls of active or inactive are those of the source. How the calls were made is not given here.

Tests used:
Test in all cases: serine hydrolase off-target inhibition in mouse brain, late-stage follow-up, selectivity assay for DAGLb inhibitor project, biochemical, gel-based competitive ABPP, mouse brain membrane, set 3 (AID 602321)
APEH = settings: gel-based competitive ABPP fluorescence, APEH, stronger effect = higher value
[1] = biological target: Acyl-protein thioesterase 2 (Mus musculus) (UniProt Q9WTL7); settings: gel-based competitive ABPP fluorescence, stronger effect = higher value
Acyl-protein thioesterase 2 (Mus musculus), sequence (Q9WTL7 whole entry, looked up): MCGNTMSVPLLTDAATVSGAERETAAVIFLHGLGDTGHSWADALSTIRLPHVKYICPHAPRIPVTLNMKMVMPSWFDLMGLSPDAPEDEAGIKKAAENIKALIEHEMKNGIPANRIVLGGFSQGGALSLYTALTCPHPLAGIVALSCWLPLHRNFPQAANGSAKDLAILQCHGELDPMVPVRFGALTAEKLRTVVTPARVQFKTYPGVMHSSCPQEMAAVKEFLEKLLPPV

[2] = biological target: Monoacylglycerol lipase ABHD6 (Mus musculus) (UniProt Q8R2Y0); settings: gel-based competitive ABPP fluorescence, stronger effect = higher value
Monoacylglycerol lipase ABHD6 (Mus musculus), sequence (Q8R2Y0 whole entry, looked up): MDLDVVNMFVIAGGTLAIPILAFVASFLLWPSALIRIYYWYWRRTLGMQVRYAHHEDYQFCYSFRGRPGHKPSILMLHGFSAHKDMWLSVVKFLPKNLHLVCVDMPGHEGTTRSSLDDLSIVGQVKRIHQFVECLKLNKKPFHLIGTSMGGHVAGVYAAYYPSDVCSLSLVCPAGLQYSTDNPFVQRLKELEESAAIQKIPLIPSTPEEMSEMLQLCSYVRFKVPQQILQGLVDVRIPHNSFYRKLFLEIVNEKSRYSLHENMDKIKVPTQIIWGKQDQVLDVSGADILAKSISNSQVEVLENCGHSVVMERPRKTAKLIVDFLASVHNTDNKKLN

LYPLA1 = settings: gel-based competitive ABPP fluorescence, stronger effect = higher value
FAAH = settings: gel-based competitive ABPP fluorescence, stronger effect = higher value
[3] = tested on: Acyl-protein thioesterase 1 (Mus musculus) + Monoacylglycerol lipase ABHD6 (Mus musculus) + Acyl-protein thioesterase 2 (Mus musculus); settings: gel-based competitive ABPP fluorescence
[4] = biological target: Acyl-protein thioesterase 1 (Mus musculus) + Monoacylglycerol lipase ABHD6 (Mus musculus) + Acyl-protein thioesterase 2 (Mus musculus) (UniProt P97823+Q8R2Y0+Q9WTL7); settings: gel-based competitive ABPP fluorescence
Acyl-protein thioesterase 1 (Mus musculus) + Monoacylglycerol lipase ABHD6 (Mus musculus) + Acyl-protein thioesterase 2 (Mus musculus) (UniProt P97823+Q8R2Y0+Q9WTL7), sequence (P97823 whole entry, looked up): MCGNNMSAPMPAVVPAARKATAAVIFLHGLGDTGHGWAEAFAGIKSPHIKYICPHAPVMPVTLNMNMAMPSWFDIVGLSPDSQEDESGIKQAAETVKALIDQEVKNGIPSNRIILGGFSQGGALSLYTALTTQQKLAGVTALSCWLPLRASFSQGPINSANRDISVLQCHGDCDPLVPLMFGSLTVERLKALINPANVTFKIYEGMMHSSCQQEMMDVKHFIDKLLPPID
Acyl-protein thioesterase 1 (Mus musculus) + Monoacylglycerol lipase ABHD6 (Mus musculus) + Acyl-protein thioesterase 2 (Mus musculus) (UniProt P97823+Q8R2Y0+Q9WTL7), sequence (Q8R2Y0 whole entry, looked up): as the sequence (Q8R2Y0 whole entry, looked up) above
Acyl-protein thioesterase 1 (Mus musculus) + Monoacylglycerol lipase ABHD6 (Mus musculus) + Acyl-protein thioesterase 2 (Mus musculus) (UniProt P97823+Q8R2Y0+Q9WTL7), sequence (Q9WTL7 whole entry, looked up): as the sequence (Q9WTL7 whole entry, looked up) above

Compound	inhibition (APEH; at 10 µM)	inhibition (APEH; inhibition, at 1 µM) [%]	inhibition ([1]; LYPLA2, at 10 µM)	inhibition ([1]; LYPLA2, inhibition, at 1 µM) [%]	inhibition ([2]; at 10 µM) [%]	inhibition ([2]; inhibition, at 1 µM) [%]	inhibition (LYPLA1; at 10 µM)	inhibition (LYPLA1; inhibition, at 1 µM) [%]	inhibition (FAAH; at 10 µM)	inhibition (FAAH; inhibition, at 1 µM) [%]	outcome [3]	outcome [4]
O=C(O)c1ccc(-c2ccc(-c3cn(C(=O)N4CCCCC4CCc4ccccc4)nn3)cc2)cc1 (stereo unspecified)	0% (inactive)	0	15% (inactive)	0	98	90	15% (inactive)	0	35% (inactive)	0	–	–
NC(=O)c1ccc(-c2ccc(-c3cn(C(=O)N4CCCCC4c4ccccc4)nn3)cc2)cc1 (stereo unspecified)	25% (inactive)	0	90%	10	98	98	90%	10	95%	10	–	–
O=C(c1ccc(-c2ccc(-c3cn(C(=O)N4CCCCC4c4ccccc4)nn3)cc2)cc1)N1CCCCC1 (stereo unspecified)	25% (inactive)	0	90%	15	98	98	90%	15	25% (inactive)	10	–	–
O=C(N1CCCCC1c1ccccc1)n1cc(-c2ccc(-c3cccc(CO)c3)cc2)nn1 (stereo unspecified)	–	–	–	–	–	–	95%	15	–	–	inactive	active
O=C(c1cccc(-c2ccc(-c3cn(C(=O)N4CCCCC4c4ccccc4)nn3)cc2)c1)N1CCCCC1 (stereo unspecified)	–	–	–	–	–	–	98%	20	–	–	inactive	–
O=C(O)c1cccc(-c2ccc(-c3cn(C(=O)N4CCCCC4c4ccccc4)nn3)cc2)c1 (stereo unspecified)	98%	80	100%	85	98	98	100%	85	90%	5	–	–
O=C(N1CCCCC1Cc1ccccc1)n1cc(-c2ccc(-c3cccc(CO)c3)cc2)nn1 (stereo unspecified)	0% (inactive)	0	0% (inactive)	0	98	98	0% (inactive)	0	25% (inactive)	0	–	–
O=C(c1ccc(-c2ccc(-c3cn(C(=O)N4CCCCC4Cc4ccccc4)nn3)cc2)cc1)N1CCCCC1 (stereo unspecified)	0% (inactive)	0	0% (inactive)	0	98	98	0% (inactive)	0	0% (inactive)	0	–	–
O=C(O)c1cccc(-c2ccc(-c3cn(C(=O)N4CCCCC4Cc4ccccc4)nn3)cc2)c1 (stereo unspecified)	–	–	–	–	–	–	15% (inactive)	0	–	–	inactive	active
O=C(N1CCCCC1c1ccccc1)n1cc(-c2ccc(-c3ccccc3CO)cc2)nn1 (stereo unspecified)	45% (inactive)	0	100%	20	98	98	100%	20	98%	15	–	–
O=C(O)c1cccc(-c2ccc(-c3cn(C(=O)N4CCCCC4CCc4ccccc4)nn3)cc2)c1 (stereo unspecified)	0% (inactive)	0	25% (inactive)	0	98	98	25% (inactive)	0	95%	15	–	–
O=C(N1CCCCC1c1ccccc1)n1cc(-c2ccc(-c3ccc(CO)cc3)cc2)nn1 (stereo unspecified)	25% (inactive)	0	90%	10	98	98	90%	10	90%	0	–	–
